From patent publication US12503461B2, “Pesticidally active heterocyclic derivatives with sulfur and sulfoximine containing substituents” (SYNGENTA CROP PROTECTION AG, priority 2019, dated 2025)

Columns and labels:
Assay type in all cases: in vivo
[1] = system: Diabrotica balteata (Corn Root Worm); test: Example B1: Diabrotica balteata (corn root worm), sprayed maize sprouts on agar, L2 larvae; settings: 96 h, application rate of 200 ppm, 4 days after infestation, in comparison to untreated samples, read-out: effect in at least one of the two categories (mortality or growth inhibition)
Protocol: Example B1: Diabrotica balteata (Corn Root Worm
Maize sprouts placed onto an agar layer in 24-well microtiter plates were treated with aqueous test solutions prepared from 10′000 ppm DMSO stock solutions by spraying. After drying, the plates were infested with L2 larvae (6 to 10 per well). The samples were assessed for mortality and growth inhibition in comparison to untreated samples 4 days after infestation.

[2] = system: Plutella xylostella (Diamond Back Moth); test: Example B4: Plutella xylostella (diamond back moth), treated artificial diet, eggs; settings: 192 h, application rate of 200 ppm, 8 days after infestation, in comparison to untreated samples, read-out: effect in at least one of the two categories (mortality or growth inhibition)
Protocol: Example B4: Plutella xylostella (Diamond Back Moth
24-well microtiter plates with artificial diet were treated with aqueous test solutions prepared from 10′000 ppm DMSO stock solutions by pipetting. After drying, Plutella eggs were pipetted through a plastic stencil onto a gel blotting paper and the plate was closed with it. The samples were assessed for mortality and growth inhibition in comparison to untreated samples 8 days after infestation.

[3] = system: Myzus persicae (Green Peach Aphid); test: Example B5: Myzus persicae (green peach aphid), feeding/contact activity, sprayed sunflower leaf discs; settings: foliar, 144 h, application rate of 200 ppm, aphid population of mixed ages, 6 days after infestation
Protocol: Example B5: Myzus persicae (Green Peach Aphid). Feeding/Contact Activity
Sunflower leaf discs were placed onto agar in a 24-well microtiter plate and sprayed with aqueous test solutions prepared from 10′000 ppm DMSO stock solutions. After drying, the leaf discs were infested with an aphid population of mixed ages. The samples were assessed for mortality 6 days after infestation.

[4] = system: Spodoptera littoralis (Egyptian Cotton Leaf Worm); test: Example B7: Spodoptera littoralis (Egyptian cotton leaf worm), sprayed cotton leaf discs, L1 larvae; settings: foliar, 72 h, application rate of 200 ppm, 3 days after infestation, in comparison to untreated samples
Protocol: Example B7: Spodoptera littoralis (Egyptian Cotton Leaf Worm
Cotton leaf discs were placed onto agar in 24-well microtiter plates and sprayed with aqueous test solutions prepared from 10′000 ppm DMSO stock solutions. After drying the leaf discs were infested with five L1 larvae. The samples were assessed for mortality, anti-feeding effect, and growth inhibition in comparison to untreated samples 3 days after infestation. Control of Spodoptera littoralis by a test sample is given when at least one of the categories mortality, anti-feedant effect, and growth inhibition is higher than the untreated sample.

[5] = system: Euschistus heros (Neotropical Brown Stink Bug); test: Example B2: Euschistus heros (neotropical brown stink bug), sprayed soybean leaves, N2 nymphs; settings: 120 h, application rate of 200 ppm, 5 days after infestation, in comparison to untreated samples, read-out: effect in at least one of the two categories (mortality or growth inhibition)
Protocol: Example B2: Euschistus heros (Neotropical Brown Stink Bug
Soybean leaves on agar in 24-well microtiter plates were sprayed with aqueous test solutions prepared from 10′000 ppm DMSO stock solutions. After drying the leaves were infested with N2 nymphs. The samples were assessed for mortality and growth inhibition in comparison to untreated samples 5 days after infestation.

CCN=S(=O)(c1ccc2oc(-c3ncc(N(C)C(C)=O)cc3S(=O)(=O)CC)nc2c1)C(F)(F)F (stereo not drawn) [P3, N-[5-ethylsulfonyl-6-[5-[N-ethyl-S-(trifluoromethyl)sulfonimidoyl]-1,3-benzoxazol-2-yl]-3-pyridyl]-N-methyl-acetamide]
≥ 80%: percent effect (mortality or growth inhibition) at 200 ppm [1] | percent effect (mortality or growth inhibition) at 200 ppm [2] | mortality at 200 ppm [3] | percent control (mortality, anti-feeding effect or growth inhibition) at 200 ppm [4]

CCS(=O)(=O)c1cc(Oc2ccccn2)cnc1-c1nc2cc(S(=N)(=O)C(F)(F)F)ccc2o1 (stereo not drawn) [P9, [2-[3-ethylsulfonyl-5-(2-pyridyloxy)-2-pyridyl]-1,3-benzoxazol-5-yl]-imino-oxo-(trifluoromethyl)-λ^6-sulfane]
≥ 80%: percent effect (mortality or growth inhibition) at 200 ppm [1] | effect (mortality or growth inhibition) at 200 ppm [5] | percent effect (mortality or growth inhibition) at 200 ppm [2] | mortality at 200 ppm [3] | percent control (mortality, anti-feeding effect or growth inhibition) at 200 ppm [4]

CCN=S(=O)(c1ccc2oc(-c3ncc(C4CC4)cc3S(=O)(=O)CC)nc2c1)C(F)(F)F (stereo not drawn) [P11, [2-(5-cyclopropyl-3-ethylsulfonyl-2-pyridyl)-1,3-benzoxazol-5-yl]-ethylimino-oxo-(trifluoromethyl)-λ^6-sulfane]
≥ 80%: percent effect (mortality or growth inhibition) at 200 ppm [1] | effect (mortality or growth inhibition) at 200 ppm [5] | percent effect (mortality or growth inhibition) at 200 ppm [2] | mortality at 200 ppm [3] | percent control (mortality, anti-feeding effect or growth inhibition) at 200 ppm [4]

CCS(=O)(=O)c1cccnc1-c1nc2cc(S(=O)(=NC3CC3)C(F)(F)F)ccc2o1 (stereo not drawn) [P13, cyclopropylimino-[2-(3-ethylsulfonyl-2-pyridyl)-1,3-benzoxazol-5-yl]-oxo-(trifluoromethyl)-λ^6-sulfane]
≥ 80%: percent effect (mortality or growth inhibition) at 200 ppm [1] | percent effect (mortality or growth inhibition) at 200 ppm [2] | mortality at 200 ppm [3] | percent control (mortality, anti-feeding effect or growth inhibition) at 200 ppm [4]

CCS(=O)(=O)c1cccnc1-c1nc2cc(S(=O)(=NC)C(F)(F)F)ccc2o1 (stereo not drawn) [P18, [2-(3-ethylsulfonyl-2-pyridyl)-1,3-benzoxazol-5-yl]-methylimino-oxo-(trifluoromethyl)-λ^6-sulfane]
≥ 80%: percent effect (mortality or growth inhibition) at 200 ppm [1] | effect (mortality or growth inhibition) at 200 ppm [5] | percent effect (mortality or growth inhibition) at 200 ppm [2] | mortality at 200 ppm [3] | percent control (mortality, anti-feeding effect or growth inhibition) at 200 ppm [4]

CCN=S(=O)(c1ccc2oc(-c3ncccc3S(=O)(=O)CC)nc2c1)C(F)(F)F (stereo not drawn) [P19, ethylimino-[2-(3-ethylsulfonyl-2-pyridyl)-1,3-benzoxazol-5-yl]-oxo-(trifluoromethyl)-λ^6-sulfane]
≥ 80%: percent effect (mortality or growth inhibition) at 200 ppm [1] | effect (mortality or growth inhibition) at 200 ppm [5] | percent effect (mortality or growth inhibition) at 200 ppm [2] | mortality at 200 ppm [3] | percent control (mortality, anti-feeding effect or growth inhibition) at 200 ppm [4]

CCS(=O)(=O)c1cc(C2(C#N)CC2)cnc1-c1nc2cc(S(=O)(=NC)C(F)(F)F)ccc2o1 (stereo not drawn) [P29, 1-[5-ethylsulfonyl-6-[5-[N-methyl-S-(trifluoromethyl)sulfonimidoyl]-1,3-benzoxazol-2-yl]-3-pyridyl]cyclopropanecarbonitrile]
≥ 80%: percent effect (mortality or growth inhibition) at 200 ppm [1] | effect (mortality or growth inhibition) at 200 ppm [5] | percent effect (mortality or growth inhibition) at 200 ppm [2] | percent control (mortality, anti-feeding effect or growth inhibition) at 200 ppm [4]

CCN=S(=O)(c1ccc2oc(-c3ncc(-c4ncccn4)cc3S(=O)(=O)CC)nc2c1)C(F)(F)F (stereo not drawn) [P35, ethylimino-[2-(3-ethylsulfonyl-5-pyrimidin-2-yl-2-pyridyl)-1,3-benzoxazol-5-yl]-oxo-(trifluoromethyl)-λ^6-sulfane]
≥ 80%: percent effect (mortality or growth inhibition) at 200 ppm [1] | effect (mortality or growth inhibition) at 200 ppm [5] | percent effect (mortality or growth inhibition) at 200 ppm [2] | percent control (mortality, anti-feeding effect or growth inhibition) at 200 ppm [4]

CCS(=O)(=O)c1cc(-c2ncccn2)cnc1-c1nc2cc(S(=N)(=O)C(F)(F)F)ccc2o1 (stereo not drawn) [P36, [2-(3-ethylsulfonyl-5-pyrimidin-2-yl-2-pyridyl)-1,3-benzoxazol-5-yl]-imino-oxo-(trifluoromethyl)-λ^6-sulfane]
≥ 80%: percent effect (mortality or growth inhibition) at 200 ppm [1] | effect (mortality or growth inhibition) at 200 ppm [5] | percent effect (mortality or growth inhibition) at 200 ppm [2] | percent control (mortality, anti-feeding effect or growth inhibition) at 200 ppm [4]

CCS(=O)(=O)c1cc(-c2ncc(Cl)cn2)cnc1-c1nc2cc(S(=N)(=O)C(F)(F)F)ccc2o1 (stereo not drawn) [P42, [2-[5-(5-chloropyrimidin-2-yl)-3-ethylsulfonyl-2-pyridyl]-1,3-benzoxazol-5-yl]-imino-oxo-(trifluoromethyl)-λ^6-sulfane]
≥ 80%: percent effect (mortality or growth inhibition) at 200 ppm [1] | effect (mortality or growth inhibition) at 200 ppm [5] | percent effect (mortality or growth inhibition) at 200 ppm [2] | percent control (mortality, anti-feeding effect or growth inhibition) at 200 ppm [4]

CCS(=O)(=O)c1ccc(-n2cncn2)nc1-c1nc2cc(S(=N)(=O)C(F)(F)F)ccc2n1C (stereo not drawn) [P44, [2-[3-ethylsulfonyl-6-(1,2,4-triazol-1-yl)-2-pyridyl]-1-methyl-benzimidazol-5-yl]-imino-oxo-(trifluoromethyl)-λ^6-sulfane]
≥ 80%: percent effect (mortality or growth inhibition) at 200 ppm [1] | percent effect (mortality or growth inhibition) at 200 ppm [2] | mortality at 200 ppm [3] | percent control (mortality, anti-feeding effect or growth inhibition) at 200 ppm [4]

CCN=S(=O)(c1ccc2c(c1)nc(-c1nc(-n3cncn3)ccc1S(=O)(=O)CC)n2C)C(F)(F)F (stereo not drawn) [P45, ethylimino-[2-[3-ethylsulfonyl-6-(1,2,4-triazol-1-yl)-2-pyridyl]-1-methyl-benzimidazol-5-yl]-oxo-(trifluoromethyl)-λ^6-sulfane]
≥ 80%: percent effect (mortality or growth inhibition) at 200 ppm [1] | percent effect (mortality or growth inhibition) at 200 ppm [2] | mortality at 200 ppm [3] | percent control (mortality, anti-feeding effect or growth inhibition) at 200 ppm [4]

CCS(=O)(=O)c1cc(Oc2ccccn2)cnc1-c1nc2cc(S(=N)(=O)C(F)(F)F)ccc2n1C (stereo not drawn) [P50, [2-[3-ethylsulfonyl-5-(2-pyridyloxy)-2-pyridyl]-1-methyl-benzimidazol-5-yl]-imino-oxo-(trifluoromethyl)-λ^6-sulfane]
≥ 80%: percent effect (mortality or growth inhibition) at 200 ppm [1] | effect (mortality or growth inhibition) at 200 ppm [5] | percent effect (mortality or growth inhibition) at 200 ppm [2] | mortality at 200 ppm [3] | percent control (mortality, anti-feeding effect or growth inhibition) at 200 ppm [4]

CCN=S(=O)(c1ccc2c(c1)nc(-c1ncc(Oc3ccccn3)cc1S(=O)(=O)CC)n2C)C(F)(F)F (stereo not drawn) [P51, ethylimino-[2-[3-ethylsulfonyl-5-(2-pyridyloxy)-2-pyridyl]-1-methyl-benzimidazol-5-yl]-oxo-(trifluoromethyl)-λ^6-sulfane]
≥ 80%: percent effect (mortality or growth inhibition) at 200 ppm [1] | effect (mortality or growth inhibition) at 200 ppm [5] | percent effect (mortality or growth inhibition) at 200 ppm [2] | mortality at 200 ppm [3] | percent control (mortality, anti-feeding effect or growth inhibition) at 200 ppm [4]

CCS(=O)(=O)c1cc(-c2ncc(C#N)cn2)cnc1-c1nc2cc(S(=N)(=O)C(F)(F)F)ccc2n1C (stereo not drawn) [P52, 2-[5-ethylsulfonyl-6-[1-methyl-5-(trifluoromethylsulfonimidoyl)benzimidazol-2-yl]-3-pyridyl]pyrimidine-5-carbonitrile]
≥ 80%: percent effect (mortality or growth inhibition) at 200 ppm [1] | effect (mortality or growth inhibition) at 200 ppm [5] | percent effect (mortality or growth inhibition) at 200 ppm [2] | mortality at 200 ppm [3] | percent control (mortality, anti-feeding effect or growth inhibition) at 200 ppm [4]

CCN=S(=O)(c1ccc2c(c1)nc(-c1ncc(-c3ncc(C#N)cn3)cc1S(=O)(=O)CC)n2C)C(F)(F)F (stereo not drawn) [P53, 2-[5-ethylsulfonyl-6-[5-[N-ethyl-S-(trifluoromethyl)sulfonimidoyl]-1-methyl-benzimidazol-2-yl]-3-pyridyl]pyrimidine-5-carbonitrile]
≥ 80%: percent effect (mortality or growth inhibition) at 200 ppm [1] | effect (mortality or growth inhibition) at 200 ppm [5] | percent effect (mortality or growth inhibition) at 200 ppm [2] | mortality at 200 ppm [3] | percent control (mortality, anti-feeding effect or growth inhibition) at 200 ppm [4]
